Our source for the melting point values is a melting point compilation (Tetko et al.; mined from patent text by program, amines drawn as free bases though some values may be those of a salt).

SMILES strings stand for the structures.

In turn, `CS(=O)(=O)Nc1ccc(CO)cc1Sc1ccc(F)cc1F` registered a melting point of 78 to 79 °C. For `COC(=O)c1cc(C(C)C)c(OS(=O)(=O)NC(=O)Cc2c(C(C)C)cc(C(C)C)cc2C(C)C)c(C(C)C)c1` the value was 144 to 146 °C.

As for `O=C1NC(c2ccccc2)N(CCN2CCN(c3ccccc3)CC2)c2ccccc21` (configuration not stated), the melting point lay within 142 to 144 °C. `CCC(C)(C)Nc1c(NCc2ccc(F)cc2F)c(=O)c1=O` returned a melting point of 242 to 244 °C. Then `O=[N+]([O-])c1c(N2CCc3ccccc3CC2)nc2c(c1O)CCCCC2`, with more than 200 °C; and `OC(CCCn1ccnc1)c1ccc(Cl)cc1Cl` (configuration not stated), with 91.5 to 94 °C; and `NC(=S)c1cc2c(cn1)[nH]c1ccccc12`, with 274 to 276 °C.

With `CCCCn1cc(S(C)=O)c(=O)c2sccc21` (configuration not stated), the melting point is 137 to 138 °C.

Consider `CON=Cc1ccc2c(c1)ncn2-c1cccc(Br)c1`, for which the melting point was 119 to 120 °C. `O=C(Nc1ccc(N2CCCC2)cc1)N(C[C@H]1CC[C@H](CN(C(=O)Nc2ccc(N3CCCC3)cc2)C2CCCCCC2)CC1)C1CCCCCC1` gave a melting point of 152 to 155 °C. Then `CC1(C)C(=O)N(c2ccc([N+](=O)[O-])c(C(F)(F)F)c2)C(=O)N1CCCCN1C(=O)N(c2ccc([N+](=O)[O-])c(C(F)(F)F)c2)C(=O)C1(C)C`, with 211 to 212 °C; and `COc1ccc(C2Nc3ccc(Cl)cc3C(C#CC3CC3)(C(F)(F)F)O2)cc1` (configuration not stated), with 130 to 132 °C. For `COc1ccc(C(=O)Cc2ccccc2)cc1OC1CCCC1` the value was 117 to 119 °C.

Turning to `COc1ccc(N2CCOCC2)c2sc(C(=O)NCC(=O)c3sc4ccccc4c3C)nc12`, the melting point was determined as 180 °C. The compound `O=[N+]([O-])c1cnn(-c2c(Cl)cc(C(F)(F)F)cc2Cl)c1Br` yielded a melting point of 96 °C. Then `Cc1ccccc1NC(=O)Nc1ccc(CN)cc1`, with 142 to 143 °C; and `CCOC(=O)C(=O)Nc1cccc(C)n1`, with 61 to 63 °C.

`CC(C)c1ccc(Nc2ccccc2[N+](=O)[O-])c(C#N)c1` displayed a melting point of 91 to 96 °C.

The compound `N=C(NN)c1cccc(Cc2c[nH]cn2)c1O` gave a melting point of 188 °C.

`CC(C)(C)OC(=O)NCc1ccc(CN2CCC(c3ccccc3)CC2)cc1`: the melting point fell in the range of 73 to 74 °C. With `N#CC1=C(C2CCC2)Nc2n[nH]cc2C1c1ccccc1Cl` (configuration not stated), the melting point was found to be 188 °C.

The compound `CC(O)C(C)(C)NC(=S)NC(=O)c1ccccc1` (configuration not stated) showed a melting point of 136 to 138 °C. For `CC1=CC2(C=CC1(C)C(Cl)(Cl)Cl)SCC(C(C)(C)C)CS2` (configuration not stated) the value was 141 to 143 °C. Then `CN1C(C(=O)Nc2cncc(Cl)n2)=C(O)c2cc(Cl)ccc2S1(=O)=O`, with 283 to 284 °C; and `CC(=O)c1c(C)c2c(c(C)c1O)OC(C)(C)C(C)C2` (configuration not stated), with 87 to 90 °C. For `CC(C)Oc1cc(CCCOc2nn(Cc3ccccc3)cc2CC(=O)O)n(Cc2ccc(Cl)cc2OC(C)C)n1` the value was 113 to 115 °C; for `Cc1cccc(CC(=O)O)c1OCCCc1cn(-c2ccc(Br)cn2)nc1C(C)(C)C`, 62 to 63 °C; for `CC(C)(C)OC(=O)N1CCC(Nc2ncc3c(n2)-c2ccccc2C(c2ccc(Cl)c(Cl)c2)C3)CC1` (configuration not stated), 94 to 96 °C. As for `CCOCc1nc2cnc3cc(O)ccc3c2n1CC1COC(C)(C)O1` (configuration not stated), the melting point lay within 239 to 240 °C. For `CCOC(=O)Nc1cc(N(C(=O)OCC)S(=O)(=O)CC)c(Br)cc1F` the value was 142 to 143 °C; for `O=C(NNc1ccc(C=CC(c2cc(Cl)c(Cl)c(Cl)c2)C(F)(F)F)cc1)C1CC1` (configuration not stated), 138 to 140 °C; for `Cc1cc(OC(F)F)nc(NC(=O)NS(=O)(=O)c2ccccc2OC(F)F)n1`, 163 to 164 °C.

In turn, `CC1(C)OC(=S)Nc2ccc(-c3ccccc3F)cc21` showed a melting point of 171 to 173 °C. For `CCCc1c(OCC2Cc3cc(C(=O)CCC(=O)O)ccc3O2)ccc(C(C)=O)c1O` (configuration not stated) the value was 80 °C. Turning to `Cc1ccc(OC(=O)C=Cc2ccccc2)c(C(=O)O)c1`, the melting point came out at 162 °C.

Compound `CNC(=S)NS(=O)(=O)C(F)(F)F` returned a melting point of 88 to 90 °C. For `CCCCC1c2ccccc2-c2cc(Br)ccc2N1S(=O)(=O)c1ccc(OC)cc1` (configuration not stated) the value was 108 to 111 °C; for `CON=C(c1cc(C)no1)c1ccccc1COc1cc(C)ccc1C`, 107 to 108 °C; for `CN(C)C1CCN(c2cc3ccccc3c(=O)[nH]2)CC1`, 204 to 205 °C.

Regarding `O=C1NCC(c2ccc(F)cc2)N1CCCCS` (configuration not stated), the melting point was 102 to 104 °C. Then `O=C1CCC(N2C(=O)c3cccc(NC(=O)c4cccc(Cl)c4)c3C2=O)C(=O)N1` (configuration not stated), with 257 to 259 °C. For `COc1ccc2c(c1)C(CC(=O)O)=C(C)C2=Cc1ccc(SC)cc1` the value was 195 to 196 °C. `CCCN(Cc1ccc(-c2ccccc2C(=O)C(=O)O)cc1)c1ncccc1C(=O)O`: the melting point lay in the range of 179 to 180 °C. `O=C(O)c1cc(S(=O)(=O)N(CCc2ccc(Cl)cc2)Cc2ccccc2)ccc1Br` had a melting point of 142 to 144 °C. For `O=C(c1ccccc1)N1CCc2[nH]c3ccc(-c4ccccc4)cc3c2CC1` the value was 140 to 145 °C; for `CC12CCC3c4ccc(C(=O)O)cc4CCC3C1CCC2C(=O)CC1CCCCC1` (configuration not stated), 239 to 241 °C.

`Oc1ccc(CN2CCN(CCCN3CCN(Cc4ccc(O)cc4)CC3)CC2)cc1` registered a melting point of 197 to 201 °C. For `FC(F)C(F)(F)Sc1nc(-c2ccccc2)c(-c2ccccc2)n1COCc1ccccc1` the value was 70 to 70.5 °C; for `COc1ccc(N2CCC(=O)C2)cc1`, 104 to 105 °C; for `Nc1ncncc1Oc1ccccc1`, 118 to 120 °C. Then `CCOC(=O)c1c(-c2ccccc2C)c2cc(Cl)ccc2[nH]c1=O`, with 215 to 216 °C; and `CC(C)c1cccc(-n2cnc(CO)c2)c1`, with 76 to 77 °C; and `Cc1oc(-c2ccco2)nc1COc1ccc(COc2ncccc2CC#N)cc1`, with 141 to 142 °C. Then `O=C(O)COc1ccc(C(=O)c2ccoc2)c2ccccc12`, with 177 °C.

`CN1CCNC(C(=O)Cn2c(-c3cc(Cl)ccn3)nc3cccnc32)C1` (configuration not stated) yielded a melting point of 174 to 175 °C. Then `CCN(CC)CCCCC1CCN(C(=O)N2c3cc(Cl)ccc3C(=O)Nc3cccnc32)CC1`, with 126 to 127 °C; and `CC(C)n1c(C=O)c(-c2ccc(F)cc2)c(-c2ccc(F)cc2)c1C(=O)Nc1ccc(S(N)(=O)=O)cc1`, with 194 to 195 °C. With `N#Cc1c(Cl)c2ccccc2n(Cc2ccc(F)cc2)c1=O`, the melting point worked out at 231 °C. Take `CN(C(=O)CNc1nc(-c2ccccc2)ncc1[N+](=O)[O-])c1ccccc1`: the melting point fell in the range of 194 to 196 °C. `CN1CCC(c2n[nH]c3ccc(F)cc23)CC1` gave a melting point of 202 to 204 °C. Then `Cc1nn(CC(O)c2ccc(Cl)cc2)c(=O)n1-c1ccc(N2CCN(c3ncc(O)cn3)CC2)cc1` (configuration not stated), with 244 °C.

On to `CCOP(=O)(O)C(=Nc1ccc(-c2c[nH]cn2)cc1)NC(C)C`, for which the melting point came to 235 °C. In turn, `CCCCCCCOc1c(C)cc2[nH]c(S(=O)Cc3ncc(C)c(OC)c3C)nc2c1C` (configuration not stated) came in with a melting point of 116 °C. For `CCCn1nc(C)c([N+](=O)[O-])c1C(N)=O` the value was 136 to 138 °C; for `CN(Cc1ccc(C(=O)O)cc1)c1ccc(Cl)cc1`, 188 to 191 °C; for `Cc1cc(CC(=O)O)n(C)c1C(=O)c1ccc(Cl)cc1Cl`, 140 to 143 °C. Then `CN1CCC2(CC1)OC(c1ccc(Cl)cc1)C1CCCCN12` (configuration not stated), with 122 to 124 °C; and `CCCCCCCCc1ccc(OC2=CC(=O)OC2O)cc1` (configuration not stated), with 59 to 61 °C; and `Cc1ccc(-c2ccc3c(c2)C=C(C(=O)Nc2ccc(CN4CCCCC4)cc2)CCC3)cc1`, with 192 to 193 °C.

`CCc1nc2c(N)cccc2o1` showed a melting point of 46 °C.

`COC(=O)c1cc(CCC2CNc3nc(NC(=O)C(C)(C)C)nc(O)c3C2)cn1[Si](C(C)C)(C(C)C)C(C)C` (configuration not stated) returned a melting point of 202 to 204 °C. For `COCCOCOc1c(C(C)(C)C)cc(-c2ccc(C#N)c(C#N)c2)cc1C(C)(C)C` the value was 130 to 131 °C; for `CCNC(=O)c1cc(N)ccc1Oc1cncc(Cl)c1`, 126 to 128 °C; for `CCCCCCCCCCCCCCc1onc(C(=O)OC)c1O`, 92 °C. Then `Cc1nc2c(c3c1[nH]c1cccc(F)c13)C(=O)CC(C(C)C)C2` (configuration not stated), with 213 to 215 °C; and `CCOC(=O)C(=O)Nc1ccc2cc(Br)ccc2c1[N+](=O)[O-]`, with 175 °C; and `CC(C)(C)NC(=O)[C@@H]1Cc2ccccc2CN1C(=O)OCc1ccccc1`, with 105 to 106 °C.

As for `O=C(Nc1nccs1)C(CC1CCCC1)c1ccc(F)c(C(F)(F)F)c1` (configuration not stated), the melting point was 125 to 127 °C. Then `O=C(O)/C(=C/c1cnc(CCc2ccccc2)n1Cc1ccc(C(=O)O)cc1)Cc1cccs1`, with 214 °C. `CC(C)(C)N1OC(c2ccccc2)(N2CCOCC2)c2cc(Cl)ccc21` (configuration not stated) returned a melting point of 130 to 132 °C.

Consider `O=C1N(N2CCOCC2)c2ccccc2C1(Cc1ccncc1)c1ccccc1` (configuration not stated), for which the melting point was in the range of 190 to 192 °C. Then `CCCn1cc(Cc2ccc(C(=O)O)cc2OC)c2cc(CC3CCCN(C)C3=O)ccc21` (configuration not stated), with 105 to 115 °C; and `CC(C)n1nc(-c2c(-c3ccccc3)nn3ccc(OCCN4CCCC4)cc23)ccc1=O`, with 149 to 150 °C; and `O=c1[nH]c(-c2ccccn2)nnc1-c1ccc(Cl)cc1`, with 216 to 217 °C. For `FC1CCC2C3Cc4ccccc4C2(CCN3)C1` (configuration not stated) the value was 93 to 97 °C. `O=C(O)Cc1nc(C(=O)c2ccccc2)no1` returned a melting point of 143 to 144 °C. For `Cc1cc(C)c(Nc2nc(C)ncc2S(=O)(=O)c2ccc(NCc3ccccc3)cc2)c(C)c1` the value was 200 to 202 °C.

By melting point is commonly meant the temperature of the solid-liquid transition.
